Assay results reported in patent publication EP0426075A1, “Benzylpyrrolidine derivatives as dopamine agonists” (SYNTEX (U.S.A.) INC., priority 1989, dated 1991).

Columns and labels:
[1] = system: saline-loaded spontaneously hypertensive rat (SHR); assay: Spontaneous Hypertensive Rat - diuretic activity, saline-loaded, oral; type: in vivo; conditions: for Urine K^+ (mEq/sample) / Urine Na^+ (mEq/sample) / Urine Volume: n = 7, mean ± S.D.
Description: Additionally, these compounds were examined for diuretic activity for 6 hours following oral compound administration in the saline-loaded spontaneously hypertensive rat (SHR). Methods for this assay have been previously described (Rosenkranz, et al, Proc. West. Pharmacol. Soc. 28 :87, 1985). The diuretic and natriuretic effects elicited by these compounds were characterized by an immediate onset of action.
The compounds of this invention were examined for diuretic activity for 6 hours following oral compound administration in the saline-loaded spontaneously hypertensive rat (SHR). Methods for this assay have been previously described (Rosenkranz, et al, Proc. West. Pharmacol. Soc. 28 :87, 1985). The diuretic and natriuretic effects elicited by these compounds were characterized by an immediate onset of action.
Male spontaneously hypertensive SHR/NCrIBR rats weighing 320-430 gms were divided into four groups of seven animals. All animals were food- and water-deprived overnight. The following morning, each group of rats was hydrated with deionized water (20 ml/kg, po) forty-five minutes prior to the administration of vehicle or the test compounds.
Following vehicle or drug, the rats were placed in individual metabolic units. Fifteen minutes post-dose the animals were saline-loaded (30 ml/kg, po). Urine was collected at 1, 3 and 6 hour intervals post-saline- load. Urine volumes were measured and sodium and potassium levels were determined by flame photometry.
A two-way analysis of variance with time, treatment and their interaction was run as a repeated measures analysis. A secondary model of one-way analysis of variance (by time) was run using specified contrasts. The p-values for the contrasts were adjusted using Fisher's LSD strategy at each time point.

[2] = system: conscious restrained spontaneously hypertensive rat; assay: Spontaneous Hypertensive Rats - antihypertensive activity, conscious restrained, oral; type: in vivo; conditions: for Peak decreases, mean blood pressure / Peak decreases, systolic blood pressure / heart rate following administration / duration of action: SHR, oral; for duration of action: blood pressure decrease; for Diastolic Blood Pressure (mm Hg) / Heart Rate (beats/ min) / Mean Blood Pressure (mm Hg) / Systolic Blood Pressure (mm Hg): change from control (XΔ ± SD), n = 4
Description: Finally, these compounds were screened for oral antihypertensive activity in the conscious restrained rat. Adult male SHR were instrumented for blood pressure and heart rate measurements under light ether anesthesia. The animals were maintained on a plexiglass restraining board following surgery, and were allowed a 1 hour recovery period prior to the oral administration of the test compounds.
The compounds of this invention were screened for oral antihypertensive activity in the conscious restrained spontaneously hypertensive rat.
Male spontaneously hypertensive rats, SHR/NCrIBr (320-410 g) were fasted overnight. The following morning the left femoral artery and vein of each rat was cannulated under light ether anesthesia. Following surgery, the rats were placed on a rat restraining board and allowed to recover from the effects of the ether for 1 hour. ECG leads were placed on the animal's chest to monitor heart rate. Animals were divided into groups of 4 and dosed with the test compounds.
Blood pressure and heart rate readings were taken at 5 minute intervals for the first 15 minutes and […] thereafter for a duration of 4 hour post-compound administration. Data was evaluated by two- tailed paired t-tests.

[3] = po 3 mg/kg, cumulative time 1 hr
[4] = po 3 mg/kg, cumulative time 3 hr
[5] = po 3 mg/kg, cumulative time 6 hr
[6] = po 10 mg/kg, cumulative time 1 hr
[7] = po 10 mg/kg, cumulative time 3 hr
[8] = po 10 mg/kg, cumulative time 6 hr
[9] = po 30 mg/kg, cumulative time 1 hr
[10] = po 30 mg/kg, cumulative time 3 hr
[11] = po 30 mg/kg, cumulative time 6 hr

Structure (SMILES): Br.Br.CCCN(CCCCCCN1CCC[C@@H]1Cc1ccc(O)c(O)c1)CCc1ccc(O)cc1 [Test Compound 1, (R)-2-(3,4-dihydroxybenzyl)-1-[6-(N-(4-hydroxyphenethyl)-N-propylamino)hexyl]pyrrolidine dihydrobromide]
- kaliuresis ([1]; 30 mg/kg, po, 1, 3, and 6 hour post-dose time points): significant kaliuresis
- Urine K^+ (mEq/sample) [1, 3]: 0.03±0.04 mEq/sample
- Urine Na^+ (mEq/sample) [1, 3]: 0.02±0.02 mEq/sample
- Urine Volume [1, 3]: 4.6 ± 1.9 mL
- Urine K^+ (mEq/sample) [1, 4]: 0.11±0.05 mEq/sample
- Urine Na^+ (mEq/sample) [1, 4]: 0.07±0.03 mEq/sample
- Urine Volume [1, 4]: 7.8 ± 1.4 mL
- Urine K^+ (mEq/sample) [1, 5]: 0.20±0.07 mEq/sample
- Urine Na^+ (mEq/sample) [1, 5]: 0.25±0.10 mEq/sample
- Urine Volume [1, 5]: 9.4 ± 1.8 mL
- Urine K^+ (mEq/sample) [1, 6]: 0.06±0.03 mEq/sample
- Urine Na^+ (mEq/sample) [1, 6]: 0.28±0.13 mEq/sample
- Urine Volume [1, 6]: 9.9 ± 3.6 mL
- Urine K^+ (mEq/sample) [1, 7]: 0.16±0.08 mEq/sample
- Urine Na^+ (mEq/sample) [1, 7]: 0.51±0.22 mEq/sample
- Urine Volume [1, 7]: 11.4 ± 3.9 mL
- Urine K^+ (mEq/sample) [1, 8]: 0.22±0.11 mEq/sample
- Urine Na^+ (mEq/sample) [1, 8]: 0.51±0.27 mEq/sample
- Urine Volume [1, 8]: 11.8 ± 3.9 mL
- Urine K^+ (mEq/sample) [1, 9]: 0.07±0.02 mEq/sample
- Urine Na^+ (mEq/sample) [1, 9]: 0.61±0.16 mEq/sample
- Urine Volume [1, 9]: 14.7 ± 2.3 mL
- Urine K^+ (mEq/sample) [1, 10]: 0.24±0.05 mEq/sample
- Urine Na^+ (mEq/sample) [1, 10]: 1.13±0.25 mEq/sample
- Urine Volume [1, 10]: 18.6 ± 2.8 mL
- Urine K^+ (mEq/sample) [1, 11]: 0.31±0.06 mEq/sample
- Urine Na^+ (mEq/sample) [1, 11]: 1.31±0.27 mEq/sample
- Urine Volume [1, 11]: 19.3 ± 2.7 mL
- Peak decreases, mean blood pressure [2]: about 20%
- Peak decreases, systolic blood pressure [2]: about 20%
- heart rate following administration [2]: not significantly altered
- duration of action [2]: up to 4 hours

Structure (SMILES): Br.Br.CCCN(CCCCCCN1CCC[C@@H]1Cc1ccc(O)c(O)c1)CCc1cccc(O)c1 [Test Compound 2, (R)-2-(3,4-dihydroxybenzyl)-1-[6-(N-(3-hydroxyphenethyl)-N-propylamino)hexyl]pyrrolidine dihydrobromide]
- Urine K^+ (mEq/sample) [1, 3]: 0.02±0.01 mEq/sample
- Urine Na^+ (mEq/sample) [1, 3]: 0.00±0.00 mEq/sample
- Urine Volume [1, 3]: 5.2 ± 1.4 mL
- Urine K^+ (mEq/sample) [1, 4]: 0.09±0.04 mEq/sample
- Urine Na^+ (mEq/sample) [1, 4]: 0.06±0.04 mEq/sample
- Urine Volume [1, 4]: 7.9 ± 0.7 mL
- Urine K^+ (mEq/sample) [1, 5]: 0.17±0.05 mEq/sample
- Urine Na^+ (mEq/sample) [1, 5]: 0.19±0.07 mEq/sample
- Urine Volume [1, 5]: 9.1 ± 0.8 mL
- Urine K^+ (mEq/sample) [1, 6]: 0.02±0.01 mEq/sample
- Urine Na^+ (mEq/sample) [1, 6]: 0.09±0.05 mEq/sample
- Urine Volume [1, 6]: 8.9 ± 1.6 mL
- Urine K^+ (mEq/sample) [1, 7]: 0.10±0.06 mEq/sample
- Urine Na^+ (mEq/sample) [1, 7]: 0.26±0.12 mEq/sample
- Urine Volume [1, 7]: 11.2 ± 2.0 mL
- Urine K^+ (mEq/sample) [1, 8]: 0.13±0.09 mEq/sample
- Urine Na^+ (mEq/sample) [1, 8]: 0.31±0.17 mEq/sample
- Urine Volume [1, 8]: 11.7 ± 2.4 mL
- Urine K^+ (mEq/sample) [1, 9]: 0.03±0.02 mEq/sample
- Urine Na^+ (mEq/sample) [1, 9]: 0.16±0.05 mEq/sample
- Urine Volume [1, 9]: 13.0 ± 2.2 mL
- Urine K^+ (mEq/sample) [1, 10]: 0.13±0.07 mEq/sample
- Urine Na^+ (mEq/sample) [1, 10]: 0.40±0.12 mEq/sample
- Urine Volume [1, 10]: 15.7 ± 2.1 mL
- Urine K^+ (mEq/sample) [1, 11]: 0.17±0.09 mEq/sample
- Urine Na^+ (mEq/sample) [1, 11]: 1.45±0.12 mEq/sample
- Urine Volume [1, 11]: 15.9 ± 2.1 mL
- Peak decreases, mean blood pressure [2]: 17%
- Peak decreases, systolic blood pressure [2]: 17%
- heart rate following administration [2]: not significantly altered
- duration of action [2]: up to 4 hours
- Diastolic Blood Pressure (mm Hg) ([2]; po 3 mg/kg, 1 hour): -8 ± 12 mm Hg
- Heart Rate (beats/ min) ([2]; po 3 mg/kg, 1 hour): -5 ± 12 beats/ min
- Mean Blood Pressure (mm Hg) ([2]; po 3 mg/kg, 1 hour): -12 ± 18 mm Hg
- Systolic Blood Pressure (mm Hg) ([2]; po 3 mg/kg, 1 hour): -13 ± 25 mm Hg
- Diastolic Blood Pressure (mm Hg) ([2]; po 3 mg/kg, 2 hours): -6 ± 3 mm Hg
- Heart Rate (beats/ min) ([2]; po 3 mg/kg, 2 hours): 5 ± 11 beats/ min
- Mean Blood Pressure (mm Hg) ([2]; po 3 mg/kg, 2 hours): -7 ± 8 mm Hg
- Systolic Blood Pressure (mm Hg) ([2]; po 3 mg/kg, 2 hours): -9 ± 13 mm Hg
- Diastolic Blood Pressure (mm Hg) ([2]; po 3 mg/kg, 3 hours): -4 ± 17 mm Hg
- Heart Rate (beats/ min) ([2]; po 3 mg/kg, 3 hours): 6 ± 18 beats/ min
- Mean Blood Pressure (mm Hg) ([2]; po 3 mg/kg, 3 hours): -8 ± 14 mm Hg
- Systolic Blood Pressure (mm Hg) ([2]; po 3 mg/kg, 3 hours): -19 ± 22 mm Hg
- Diastolic Blood Pressure (mm Hg) ([2]; po 3 mg/kg, 4 hours): -9 ± 7 mm Hg
- Heart Rate (beats/ min) ([2]; po 3 mg/kg, 4 hours): 10 ± 23 beats/ min
- Systolic Blood Pressure (mm Hg) ([2]; po 3 mg/kg, 4 hours): -29 ± 19 mm Hg
- Diastolic Blood Pressure (mm Hg) ([2]; po 10 mg/kg, 1 hour): -19 ± 3 mm Hg
- Heart Rate (beats/ min) ([2]; po 10 mg/kg, 1 hour): -11 ± 6 beats/ min
- Mean Blood Pressure (mm Hg) ([2]; po 10 mg/kg, 1 hour): -21 ± 3 mm Hg
- Systolic Blood Pressure (mm Hg) ([2]; po 10 mg/kg, 1 hour): -26 ± 6 mm Hg
- Diastolic Blood Pressure (mm Hg) ([2]; po 10 mg/kg, 2 hours): -11 ± 21 mm Hg
- Heart Rate (beats/ min) ([2]; po 10 mg/kg, 2 hours): -6 ± 8 beats/ min
- Mean Blood Pressure (mm Hg) ([2]; po 10 mg/kg, 2 hours): -21 ± 8 mm Hg
- Systolic Blood Pressure (mm Hg) ([2]; po 10 mg/kg, 2 hours): -28 ± 10 mm Hg
- Diastolic Blood Pressure (mm Hg) ([2]; po 10 mg/kg, 3 hours): -19 ± 8 mm Hg
- Heart Rate (beats/ min) ([2]; po 10 mg/kg, 3 hours): -5 ± 11 beats/ min
- Mean Blood Pressure (mm Hg) ([2]; po 10 mg/kg, 3 hours): -27 ± 4 mm Hg
- Systolic Blood Pressure (mm Hg) ([2]; po 10 mg/kg, 3 hours): -36 ± 23 mm Hg
- Diastolic Blood Pressure (mm Hg) ([2]; po 10 mg/kg, 4 hours): -16 ± 7 mm Hg
- Heart Rate (beats/ min) ([2]; po 10 mg/kg, 4 hours): 1 ± 3 beats/ min
- Mean Blood Pressure (mm Hg) ([2]; po 10 mg/kg, 4 hours): -22 ± 12 mm Hg
- Systolic Blood Pressure (mm Hg) ([2]; po 10 mg/kg, 4 hours): -31 ± 20 mm Hg
- Diastolic Blood Pressure (mm Hg) ([2]; po 30 mg/kg, 1 hour): -6 ± 5 mm Hg
- Heart Rate (beats/ min) ([2]; po 30 mg/kg, 1 hour): -1 ± 10 beats/ min
- Mean Blood Pressure (mm Hg) ([2]; po 30 mg/kg, 1 hour): -5 ± 9 mm Hg
- Systolic Blood Pressure (mm Hg) ([2]; po 30 mg/kg, 1 hour): -4 ± 14 mm Hg
- Diastolic Blood Pressure (mm Hg) ([2]; po 30 mg/kg, 2 hours): -17 ± 6 mm Hg
- Heart Rate (beats/ min) ([2]; po 30 mg/kg, 2 hours): 9 ± 10 beats/ min
- Mean Blood Pressure (mm Hg) ([2]; po 30 mg/kg, 2 hours): -14 ± 14 mm Hg
- Systolic Blood Pressure (mm Hg) ([2]; po 30 mg/kg, 2 hours): -18 ± 10 mm Hg
- Diastolic Blood Pressure (mm Hg) ([2]; po 30 mg/kg, 3 hours): -15 ± 5 mm Hg
- Heart Rate (beats/ min) ([2]; po 30 mg/kg, 3 hours): 18 ± 15 beats/ min
- Mean Blood Pressure (mm Hg) ([2]; po 30 mg/kg, 3 hours): -17 ± 11 mm Hg
- Systolic Blood Pressure (mm Hg) ([2]; po 30 mg/kg, 3 hours): -26 ± 17 mm Hg
- Diastolic Blood Pressure (mm Hg) ([2]; po 30 mg/kg, 4 hours): -20 ± 9 mm Hg
- Heart Rate (beats/ min) ([2]; po 30 mg/kg, 4 hours): 20 ± 16 beats/ min
- Systolic Blood Pressure (mm Hg) ([2]; po 30 mg/kg, 4 hours): -32 ± 20 mm Hg
